Test results published in patent US10906878B2, “Kinase inhibitors for the treatment of disease” (Dana-Farber Cancer Institute, Inc., priority 2013, dated 2021).
“And” between values parts separate entries of the source, which are not always exact repeats. Equal values may be shown once. Read-outs that look alike come from different tables or passages of the source.

Assays:
[1] = Microsome Stability Mouse; assay type: in vitro ADME; conditions: mouse microsomes
[2] = biological target: EGFR Wild type vIII Ba/F3 cells (Homo sapiens (Human), UniProt P00533, DELINS30-297G); assay: Ba/F3 cell growth inhibition (MTS assay), EGFR Wild type vIII; assay type: cell-based
EGFR Del Ba/F3 cells = EGFR Del Ba/F3 cells (Homo sapiens, UniProt P00533, cells depend on it, form not given); assay: Ba/F3 cell growth inhibition (MTS assay), EGFR Del; assay type: cell-based; conditions: for EGFR activity (% Control, 1.0 μM drug) Assay 1 Del / IC50: Assay 1; for IC50: Del, read-out: EGFR Ba/F3 cells IC 50 (nM) Assay 1 Del
Excerpt: (§1) The specific cDNAs encoding the oncogenic alterations (EGFR: Del 19, L858R, L718Q, L844V, Del/T790M, L858R/T790M, Del 19/L718Q, Del 19/L844V, Del 19/T790M/L718Q and L858R/T790M/L718Q; FGFR: TEL-FGFR1, TEL-FGFR2, TEL-FGFR1 V561M, TEL-FGFR2 V561M; ALK: EML4-ALK; ROS1: CD74-ROS1) were cloned into the pDNA-Dual (BD Biosciences) vector using standard molecular biology techniques. Mutations were introduced using site-directed mutagenesis (Agilent) with mutant specific primers according to the manufacturer's instructions. All constructs were confirmed by DNA sequencing. The constructs were introduced into Ba/F3 cells using retroviral infection. Polyclonal cell lines were established by puromycin selection and subsequently cultured in the absence of interleukin-3 (IL-3). Uninfected Ba/F3 cells or cell lines expressing green fluorescent protein (GFP) were used as controls.
(§2) Growth and inhibition of growth was assessed by MTS assay. This assay, a colorimetric method for determining the number of viable cells, is based on the bioreduction of 3-(4,5-dimethylthiazol-2-yl)-5-(3-carboxymethoxyphenyl)-2-(4-sulfophenyl)-2H-tetrazolium (MTS) by cells to a formazan product that is soluble in cell culture medium, can be detected spectrophotometrically and was performed according to the manufacturer's recommended conditions. Ba/F3 cells were exposed to treatment for 72 hours and the number of cells used per experiment determined empirically to assure linear growth kinetics over that time period. All experimental points were set up in six to twelve wells and all experiments were repeated at least three times. […] The curves were fitted using a non-linear regression model with a sigmoidal dose response.

[3] = biological target: EGFR Del/T790M Ba/F3 cells (Homo sapiens, UniProt P00533, T790M, cells depend on it, form not given); assay: Ba/F3 cell growth inhibition (MTS assay), EGFR Del/T790M; assay type: cell-based; conditions: for EGFR activity (% Control, 1.0 μM drug) Assay 1 Del/T790M / IC50: Assay 1; for IC50: Del/T790M, read-out: EGFR Ba/F3 cells IC 50 (nM) Assay 1 Del/T790M
Excerpt: as §1, §2

[4] = biological target: EGFR Del/T790M/L718Q Ba/F3 cells (Homo sapiens, UniProt P00533, L718Q/T790M, cells depend on it, form not given); assay type: cell-based
Excerpt: as §1, §2

EGFR L858R Ba/F3 cells = EGFR L858R Ba/F3 cells (Homo sapiens (Human), UniProt P00533, L858R); assay: Ba/F3 cell growth inhibition (MTS assay), EGFR L858R; assay type: cell-based; conditions: for EGFR activity (% Control, 1.0 μM drug) Assay 1 L858R / IC50: Assay 1; for IC50: L858R, read-out: EGFR Ba/F3 cells IC 50 (nM) Assay 1 L858R
Excerpt: as §1, §2

[5] = biological target: EGFR L858R/T790M Ba/F3 cells (Homo sapiens (Human), UniProt P00533, L858R/T790M); assay: Ba/F3 cell growth inhibition (MTS assay), EGFR L858R/T790M; assay type: cell-based; conditions: for IC50: Assay 1, L858R/T790M, read-out: EGFR Ba/F3 cells IC 50 (nM) Assay 1 L858R/T790M
Excerpt: as §1, §2

[6] = biological target: EGFR L718Q/L858R Ba/F3 cells (Homo sapiens (Human), UniProt P00533, L718Q/L858R); assay: Ba/F3 cell growth inhibition (MTS assay), EGFR L858R/L718Q; assay type: cell-based; conditions: L718Q/L858R
[7] = biological target: EGFR L858R/T790M/L718Q Ba/F3 cells (Homo sapiens (Human), UniProt P00533, L718Q/L858R/T790M); assay: Ba/F3 cell growth inhibition (MTS assay), EGFR L858R/T790M/L718Q; assay type: cell-based
Excerpt: as §1, §2

KIF5B/Ret_V804M = assay: Ba/F3 cell growth inhibition (MTS assay), KIF5B/Ret_V804M; assay type: cell-based
Protocol: as §2

BTK = BTK (Homo sapiens (Human), UniProt Q06187); assay: BTK kinase assay (LanthaScreen Kinase assay); assay type: biochemical
Chain of BTK (Q06187 whole entry): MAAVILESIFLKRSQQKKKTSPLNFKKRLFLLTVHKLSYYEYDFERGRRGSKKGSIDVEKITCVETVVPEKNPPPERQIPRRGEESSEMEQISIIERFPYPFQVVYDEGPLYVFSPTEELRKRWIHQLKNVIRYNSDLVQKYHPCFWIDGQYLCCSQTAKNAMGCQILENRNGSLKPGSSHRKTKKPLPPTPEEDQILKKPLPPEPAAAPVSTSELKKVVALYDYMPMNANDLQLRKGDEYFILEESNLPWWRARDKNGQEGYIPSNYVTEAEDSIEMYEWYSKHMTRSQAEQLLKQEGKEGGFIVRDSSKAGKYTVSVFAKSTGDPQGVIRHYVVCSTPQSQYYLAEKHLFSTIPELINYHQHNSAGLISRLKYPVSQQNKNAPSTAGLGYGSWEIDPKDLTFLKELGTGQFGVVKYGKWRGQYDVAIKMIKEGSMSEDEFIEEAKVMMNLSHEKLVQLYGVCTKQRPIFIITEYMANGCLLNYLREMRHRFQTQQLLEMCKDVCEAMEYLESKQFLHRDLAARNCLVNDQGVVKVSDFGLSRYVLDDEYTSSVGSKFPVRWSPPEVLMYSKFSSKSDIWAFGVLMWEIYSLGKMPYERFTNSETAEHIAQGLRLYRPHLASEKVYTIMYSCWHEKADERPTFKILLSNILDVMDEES
Protocol: BTK kinase assay was conducted using LanthaScreen® Kinase assay.
1. Optimization of kinase concentration required to determine ATP Km,app. The assay was first performed at a high concentration of ATP (1 mM) against a dilution series of kinase in order to determine the amount of kinase required to elicit an approximately 80% change between the minimum and maximum TR-FRET emission ratios (the EC80 value).
2. Determination of ATP Km,app. Using the concentration of enzyme determined in step 1, the assay was then performed against a dilution series of ATP in order to determine the amount of ATP required to elicit a 50% change between the minimum and maximum TR-FRET emission ratios (the EC50 value). This concentration of ATP was referred to as the “apparent” Km value for ATP, or the ATP Km,app.
3. Optimization of kinase concentration required for assay at ATP Km,app. Using the ATP Km,app concentration of ATP determined in step 2, the kinase titration was repeated in order to determine the concentration of kinase required to elicit an approximately 80% change between the minimum and maximum TR-FRET emission ratios at the ATP Km,app concentration of ATP (the EC80 value). This was the concentration of kinase that will be used in an assay to determine an IC50 value for a compound of the invention.
Using the ATP and kinase concentrations determined above, the reaction was then performed in the presence of a dilution series of various compounds of the invention, and the amount of compounds required to elicit a 50% change in TR-FRET ratio (the IC50) was determined. The experiments can be performed over two days, with steps one and two being performed on the first day, and step three and the inhibitor IC50 determination(s) being performed on the second day.

SMILES	Microsome Stability Mouse min [1]	EGFR activity (% Control, 1.0 μM drug) Assay 1 Del (EGFR Del Ba/F3 cells)	EGFR activity (% Control, 1.0 μM drug) Assay 2 Del (EGFR Del Ba/F3 cells)	IC50 (EGFR Del Ba/F3 cells)	EGFR activity (% Control, 1.0 μM drug) Assay 1 Del/T790M [3]	EGFR activity (% Control, 1.0 μM drug) Assay 2 Del/T790M [3]	IC50 [3]	EGFR activity (% Control, 1.0 μM drug) Assay 1 Del/T790M/L718Q ([4]; Assay 1)	EGFR activity (% Control, 1.0 μM drug) Assay 2 Del/T790M/L718Q [4]	EGFR activity (% Control, 1.0 μM drug) Assay 1 L858R (EGFR L858R Ba/F3 cells)	EGFR activity (% Control, 1.0 μM drug) Assay 2 L858R (EGFR L858R Ba/F3 cells)	IC50 (EGFR L858R Ba/F3 cells)	IC50 [5]	IC50 (BTK)	also measured
C=CC(=O)Nc1cccc(N(C(=O)Oc2ccccc2)c2ccnc(Nc3ccc(N4CCN(C)CC4)cc3OC)n2)c1 [Compound 10A]	18.5 min	4 % Control	1 % Control	4.64 nM	2 % Control	2 % Control	22.9 nM	76 % Control	84 % Control	4 % Control	3 % Control	1.52 nM	14.8 nM	–	IC50 ([2]; read-out: EGFR Ba/F3 cells IC 50 (nM) Assay 1 Wild type vIII): 28.1 nM; IC50 ([4]; read-out: EGFR Ba/F3 cells IC 50 Assay 1 Del/T/L718Q, Assay 1, Del/T/L718Q): > 1000 nM and 1000 nM; IC50 ([6]; read-out: EGFR Ba/F3 cells IC 50 (nM) Assay 1 L718Q/L858R, Assay 1): 146 nM; IC50 ([6]; read-out: EGFR Ba/F3 cells IC 50 (nM) Assay 2 L718Q/L858R, Assay 2): 204 nM; IC50 ([7]; read-out: EGFR Ba/F3 cells IC 50 (nM) Assay 1 T/L/L718Q; Assay 1; T/L/L718Q): 270 nM; KIF5B/Ret_V804M Ba/F3 cell growth (% control, 1.0 μM drug) (KIF5B/Ret_V804M; Assay 1): 91 % Control
C=CC(=O)Nc1cccc(N(C(=O)Nc2ccccc2)c2cc(Nc3ccc(N4CCN(C)CC4)cc3OC)ncn2)c1 [Compound 1A, N-(3-(1-(6-((2-methoxy-4-(4-methylpiperazin-1-yl)phenyl)amino)pyrimidin-4-yl)-3-phenylureido)phenyl)acrylamide]	14 min	4 % Control	0 % Control	6.33 nM	3 % Control	1 % Control	19 nM	63 % Control	83 % Control	2 % Control	5 % Control	1.56 nM	3.1 nM	–	IC50 ([2]; Assay 1, read-out: EGFR Ba/F3 cells IC 50 (nM) Assay 1 Wild type vIII): 16.4 nM; EGFR Ba/F3 cells Assay 1 Del/T/L718Q % inhibition 1.0 uM ([4]; Assay 1, Del/T/L718Q, 1.0 uM): 47%; IC50 ([6]; Assay 1, read-out: EGFR Ba/F3 cells IC 50 (nM) Assay 1 L718Q/L858R): 49.8 nM; IC50 ([6]; Assay 2, read-out: EGFR Ba/F3 cells IC 50 (nM) Assay 2 L718Q/L858R): 149 nM; IC50 ([7]; Assay 1; T/L/L718Q; read-out: EGFR Ba/F3 cells IC 50 (nM) Assay 1 T/L/L718Q): 178 nM; EGFR activity (% Control, 1.0 μM drug) Assay 1 KIF5B/Ret_V804M (KIF5B/Ret_V804M): 65 % Control
C=CC(=O)Nc1cccc(N(C(=O)NCc2ccccc2)c2cc(Nc3ccc(N4CCN(C)CC4)cc3)ncn2)c1 [Compound 29A]	–	–	–	–	–	–	–	–	–	–	–	–	–	19.4 nM	EGFR activity (% Control, 100 nM drug) Del (EGFR Del Ba/F3 cells; 100 nM drug, Table G): 2 % Control; EGFR activity (% Control, 100 nM drug) Del/T790M ([3]; 100 nM drug, Table G): 6 % Control; EGFR activity (% Control, 100 nM drug) L858R (EGFR L858R Ba/F3 cells; 100 nM drug, Table G): 0 % Control; EGFR activity (% Control, 100 nM drug) L858R/T790M ([5]; 100 nM drug, Table G): 13 % Control
C=CC(=O)Nc1cccc(N(C(=O)OCc2ccccc2)c2ccnc3[nH]ccc23)c1 [Compound 103A]	–	–	–	–	–	–	–	–	–	–	–	–	–	2240 nM	–
